From patent US6608032B1, “Medicinal compositions” (Takara Shuzo Co., Ltd., priority 1999, dated 2003)

Columns and labels:
[1] = tested on: RAW264.7 cells; assay: LPS-induced prostaglandin E2 production in RAW264.7 cells; assay type: cell-based; conditions: 10 μl of 5 mM solution per 500 μl well, 0.5 or 5 hours before LPS; 12 hours; FIG. 3
Description: RAW264.7 cells (ATCC TIB 71) were suspended in Dulbecco's modified Eagle's medium (Bio Whittaker, Code. 12-604F) containing 10% fetal calf serum at a concentration of 3×10^5 cells/ml. 500 μl of the suspension was added to each well of a 48-well microtiter plate and the plate was incubated at 37° C. for 6 hours in the presence of 5% CO2. 10 μl of a filter-sterilized agarooligosaccharide solution containing agarobiose, agarotetraose or agarohexaose prepared in Referential Example 1 at a concentration of 5 mM in water was added to the well. The plate was incubated for additional 0.5 or 5 hours. 10 μl of 50 μg/ml LPS aqueous solution was then added to the well. After the plate was incubated for additional 12 hours, the amount of prostaglandin E2 was measured. As control groups, a group to which LPS was not added and a group to which agarobiose, agarotetraose or agarohexaose was not added were provided.
After cultivation, the amount of prostaglandin E2 in the culture supernatant was measured using Prostaglandin E2 ELISA Kit (Neogen, Code. 404110). All of the measurements were carried out in triplicate.

[2] = tested on: RAW264.7 cells; assay: NO production induced by LPS and IFN-γ in RAW264.7 cells (NO2− in medium, Griess); assay type: cell-based; conditions: 10 μl of 5 mM oligosaccharide solution per 500 μl well, added 0.5 or 5 hours before LPS and IFN-γ; 12 hours; FIG. 1
Description: RAW264.7 cells (ATCC TIB 71) were suspended in Dulbecco's modified Eagle's medium (Bio Whittaker, 12-917F) without Phenol Red containing 10% fetal calf serum and 2 mM L-glutamine (Life Technologies Oriental, Code. 25030-149) at a concentration of 3×10^5 cells/ml. 500 μl of the suspension was added to each well of a 48-well microtiter plate and the plate was incubated at 37° C. for 6 hours in the presence of 5% CO2. 10 μl of a filter-sterilized oligosaccharide solution containing agarobiose, agarotetraose or agarohexaose prepared in Referential Example 1 at a concentration of 5 mM in water was added to the well. The plate was incubated for additional 0.5 or 5 hours. 10 μl of aqueous solution containing lipopolysaccharide (LPS, Sigma, Code. L-2012) at a concentration of 5 μg/ml and interferon-γ (IFN-γ, sold by Cosmobio, Code. GZM-MG-IFN) at a concentration of 2000 U/ml was added to the well. The plate was incubated for additional 12 hours. The concentration of […] resulting from oxidation of NO in the medium was then measured.
As control groups, a group to which LPS or IFN-γ was not added and a group to which agarobiose, agarotetraose or agarohexaose was not added were provided.
After cultivation, 100 μl of 4% Griess' reagent (Sigma, Code. G4410) was added to 100 μl of the culture supernatant, and the mixture was allowed to stand for 15 minutes at room temperature. The absorbance at 490 nm was then measured. NO2^− concentration in the medium was calculated with reference to a calibration curve prepared by using NaNO2 dissolved in the same medium at a predetermined concentration. All of the measurements were carried out in triplicate.

[3] = tested on: HL-60 Nu cells; assay: TPA-induced intracellular peroxides in HL-60 Nu (neutrophil-like) cells; assay type: cell-based; conditions: 50 μl of 5 mM solution, 2 hours before TPA; 5 hours; FIG. 2
Description: HL-60 cells were added to RPMI 1640 medium (Bio Whittaker, Code. 12-702F) containing 10% fetal calf serum and 1.3% dimethyl sulfoxide (Dojindo Laboratories, Code. 346-03615) and cultured at 37° C. for 1 week in the presence of 5% CO2 to prepare cells differentiated into neutrophil-like cells (hereinafter referred to as HL-60 Nu).
Agarobiose, agarotetraose or agarohexaose obtained in Referential Example 1 was dissolved in water at a concentration of 5 mM. The solution was sterilized by filtration. HL-60 Nu cells were suspended in RPMI 1640 medium containing 10% fetal calf serum at a concentration of 2.5×10^5 cells/2.4 ml. 50 μl of one of the oligosaccharide aqueous solutions was added to a well containing the cells. The cells were cultured at 37° C. for 2 hours in the presence of 5% CO2. Then, 50 μl of a solution containing phorbol 12-myristate 13-acetate (TPA, Gibco, Code. 13139-019) at a concentration of 5 mg/ml in water was added the well. After the cells were cultured for additional 5 hours, intracellular peroxides were determined. As control groups, a group to which TPA was not added and a group to which agarobiose, agarotetraose or agarohexaose as not added were provided.
After cultivation, 10 μl of a solution containing 2′,7′-dichlorofluorescein diacetate (Sigma, Code. D6833) at a concentration of 5 mM in dimethyl sulfoxide was added to the well. The cells were cultured for additional 30 minutes. The cells were then collected by centrifugation and washed twice in phosphate buffered saline. 2′, 7′-dichlorofluorescein, which is generated in proportion to the amount of intracellular peroxides, was determined using FACScan as described in Saibo Kogaku, Bessatsu (Cell Technology, Suppl.) Jikken Protocol Series: Kassei Sanso Jikken Protocol (Experimental Protocol Series: Experimental Protocols for Active Oxigen) (1994, Shujun-sha) pp. 51-54.

[4] = tested on: α-glucosidase; assay: α-glucosidase inhibition with p-nitrophenyl-α-D-glucopyranoside; assay type: biochemical, S. cerevisiae
Description: (1) An α-glucosidase activity was measured by allowing α-glucosidase to act on p-nitrophenyl-α-D-glucopyranoside (a chromogenic substrate) and calorimetrically quantifying 4-nitrophenol released by hydrolysis.
10 μl of α-glucosidase solution [40 mU/ml, derived from S. cerevisiae, Sigma, dissolved in 10 mM phosphate buffer (pH 7.2 at 37° C.)] and 10 μl of a solution containing a test sample dissolved in 10 mM phosphate buffer (pH 7.2 at 37° C.) were mixed. 80 μl of a 1.5 mg/ml substrate solution [Sigma, dissolved in 10 mM phosphate buffer (pH 7.2 at 37° C.)] was added thereto to initiate the reaction. After reacting at 37° C. for 40 minutes, the absorbance at 410 nm was measured using Shimadzu uv2200. The remaining activity therein was calculated defining the activity observed without the addition of test sample as 100%.
Agarobiose, agarotetraose, agarohexaose and agarooctaose used as test samples were those prepared in Referential Example 1. Commercially available products of anhydrogalactose (Funakoshi), neoagarobiose (Sigma), neoagarotetraose (Funakoshi) and neoagarohexaose (Funakoshi) were used.

| Structure (SMILES) | prostaglandin E2 production induced by LPS [1] | NO production induced by LPS and IFN-γ [2] | TPA-induced generation of intracellular peroxides [3] | Activity of inhibiting α-glucosidase (% remaining activity) ([4]; 5 μM) | Activity of inhibiting α-glucosidase (% remaining activity) ([4]; 50 μM) | Activity of inhibiting α-glucosidase (% remaining activity) ([4]; 500 μM) | Activity of inhibiting α-glucosidase (% remaining activity) ([4]; 1000 μM) | Activity of inhibiting α-glucosidase (% remaining activity) ([4]; 5000 μM) |
| --- | --- | --- | --- | --- | --- | --- | --- | --- |
| OC[C@H]1O[C@@H](O[C@H]2[C@H]3OC[C@@H]2OC(O)[C@H]3O)[C@H](O)[C@@H](O)[C@H]1O (mixture of isomers) [Agarobiose, agarobiose] | inhibited the prostaglandin E2 production induced by LPS | inhibited NO production induced by LPS and IFN-γ | Slight inhibition | 100% | 100% | 100% | 100% | 100% |
| OCC1OC(OC2C3COC2C(O)C(OC2C(O)C(CO)OC(OC4C5COC4C(O)C(OC4C(O)C(CO)OC(OC6C7COC6C(O)C(O)O7)C4O)O5)C2O)O3)C(O)C(O)C1O (stereo not drawn) [Agarohexaose, agarohexaose] | inhibited the prostaglandin E2 production induced by LPS | inhibited NO production induced by LPS and IFN-γ | inhibition of TPA-induced generation of intracellular peroxides was observed | 91% | 91% | 47% | 35% | 7% |
| OCC1OC(OC2C3COC2C(O)C(OC2C(O)C(CO)OC(OC4C5COC4C(O)C(O)O5)C2O)O3)C(O)C(O)C1O (stereo not drawn) [Agarotetraose, agarotetraose] | inhibited the prostaglandin E2 production induced by LPS | inhibited NO production induced by LPS and IFN-γ | Slight inhibition | 100% | 97% | 75% | 32% | 20% |
